Consider eight compounds from patent US20250250230A1, “HETEROCYCLIC COMPOUND” (TAKEDA PHARMACEUTICAL COMPANY LIMITED, priority 2022, published 2025).

For this assay, the target named is T1, human orexin type 2 receptor (Homo sapiens, UniProt O43614).
T1 construct: expressed in transfected cells
T1 sequence (O43614 1-444): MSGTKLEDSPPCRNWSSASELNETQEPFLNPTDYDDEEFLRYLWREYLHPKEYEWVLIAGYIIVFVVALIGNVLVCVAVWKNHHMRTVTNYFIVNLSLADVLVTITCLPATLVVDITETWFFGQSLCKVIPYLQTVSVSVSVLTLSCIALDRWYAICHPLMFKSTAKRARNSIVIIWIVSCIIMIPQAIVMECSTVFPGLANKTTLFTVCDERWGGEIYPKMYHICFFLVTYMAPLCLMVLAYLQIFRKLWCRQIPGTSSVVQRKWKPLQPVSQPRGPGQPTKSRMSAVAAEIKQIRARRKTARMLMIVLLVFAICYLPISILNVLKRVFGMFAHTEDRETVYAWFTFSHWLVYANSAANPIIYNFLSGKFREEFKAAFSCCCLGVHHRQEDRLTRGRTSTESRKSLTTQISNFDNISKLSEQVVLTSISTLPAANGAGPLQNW
Briefly: Measurement of orexin type 2 receptor agonist activity (calcium fluorescence, Fluo-4 AM, FDSS). Type of assay: cell-based. The following applies: test compound 3 μM; CHO cells expressing human OX2 receptor; DMSO = 0%, orexin A (human) = 100%. The procedure, abridged: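 Agonist response scaled between vehicle (0%) and human orexin A at 10 nM final (100%), from 2-min kinetic Fluo-4 fluorescence reads. Stable hOX2R CHO-K1 clone, dye-loaded in HBSS/20 mM HEPES/0.1% BSA with 1.25 mM probenecid before compound addition.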

Consider `CS(=O)(=O)N[C@H]1CCCN(C(=O)C2C(c3ccccc3-c3c(F)cccc3F)C2(F)F)C1` (stereo partly drawn) [Example 330, N-{(3S)-1-[(1R,3R)-3-(2′,6′-difluoro[1,1′-biphenyl]-2-yl)-2,2-difluorocyclopropane-1-carbonyl]piperidin-3-yl}methanesulfonamide, or N-{(3S)-1-[(1S,3S)-3-(2′,6′-difluoro[1,1′-biphenyl]-2-yl)-2,2-difluorocyclopropane-1-carbonyl]piperidin-3-yl}methanesulfonamide], for which the “OX2R agonist activity (3 μM, %)” value came out at 91%.

For `CC1CC(NS(C)(=O)=O)CN(C(=O)C2CC2c2ccccc2-c2c(F)cccc2F)C1` (racemic) [Example 158], the “OX2R agonist activity (3 μM, %)” value came to 106%.

Turning to `CC1(C)C(C(=O)N2CCC[C@H](NS(C)(=O)=O)CC2)C1c1ccccc1-c1c(F)cccc1F` (mixture of isomers) [Example 288, a mixture of N-{(4S)-1-[(1R,2R)-2-(2′,6′-difluoro[1,1′-biphenyl]-2-yl)-2,2-dimethylcyclopropane-1-carbonyl]azepan-4-yl}methanesulfonamide and N-{(4S)-1-[(1S,3S)-3-(2′,6′-difluoro[1,1′-biphenyl]-2-yl)-2,2-dimethylcyclopropane-1-carbonyl]azepan-4-yl}methanesulfonamide], the “OX2R agonist activity (3 μM, %)” value was found to be 96%.

Consider `CS(=O)(=O)NC1CCCN(C(=O)C2CC2c2c(F)cccc2-c2c(F)cccc2F)CC1` (racemic) [Example 32, a mixture of rac-N-{(4R)-1-[(1R,2R)-2-(2′,3,6′-trifluoro[1,1′-biphenyl]-2-yl)cyclopropane-1-carbonyl]azepan-4-yl}methanesulfonamide and rac-N-{(4S)-1-[(1R,2R)-2-(2′,3,6′-trifluoro[1,1′-biphenyl]-2-yl)cyclopropane-1-carbonyl]azepan-4-yl}methanesulfonamide], for which the “OX2R agonist activity (3 μM, %)” value worked out at 102%.

Turning to `CNS(=O)(=O)NC[C@@H]1[C@H](F)CN1C(=O)[C@@H]1C[C@@]1(F)c1ccc(Cl)cc1-c1c(F)cccc1F` [Example 443, N-({(2R,3R)-1-[(1S,2S)-2-(5-chloro-2′,6′-difluoro[1,1′-biphenyl]-2-yl)-2-fluorocyclopropane-1-carbonyl]-3-fluoroazetidin-2-yl}methyl)-N′-methylsulfuric diamide], the “OX2R agonist activity (3 μM, %)” value is 100%.

Take `CS(=O)(=O)NC1CCCN(C(=O)C2CC2c2ccc(C(F)F)cc2-c2c(F)cccc2F)C1` (racemic) [Example 230, a mixture of rac-N-[(3R)-1-{(1R,2R)-2-[5-(difluoromethyl)-2′,6′-difluoro[1,1′-biphenyl]-2-yl]cyclopropane-1-carbonyl}piperidin-3-yl]methanesulfonamide and rac-N-[(3S)-1-{(1R,2R)-2-[5-(difluoromethyl)-2′,6′-difluoro[1,1′-biphenyl]-2-yl]cyclopropane-1-carbonyl}piperidin-3-yl]methanesulfonamide]: the “OX2R agonist activity (3 μM, %)” value worked out at 91%.

For `CS(=O)(=O)NC1CCN(C(=O)C2CC2c2ccccc2-c2ccccc2Cl)C1` (racemic) [Example 85, a mixture of rac-N-{(3R)-1-[(1R,2R)-2-(2′-chloro[1,1′-biphenyl]-2-yl)cyclopropane-1-carbonyl]pyrrolidin-3-yl}methanesulfonamide and rac-N-{(3S)-1-[(1R,2R)-2-(2′-chloro[1,1′-biphenyl]-2-yl)cyclopropane-1-carbonyl]pyrrolidin-3-yl}methanesulfonamide], the “OX2R agonist activity (3 μM, %)” value was determined as 68%.

For the compound `C[C@@H]1CN(C(=O)[C@@H]2C[C@@]2(F)c2ccccc2-c2c(F)cccc2F)C[C@@H](CNS(C)(=O)=O)O1` [Example 372, N-({(2S,6R)-4-[(1S,2S)-2-(2′,6′-difluoro[1,1′-biphenyl]-2-yl)-2-fluorocyclopropane-1-carbonyl]-6-methylmorpholin-2-yl}methyl)methanesulfonamide], the “OX2R agonist activity (3 μM, %)” value worked out at 95%.
